Laboratory results reported in patent publication US12297222B2, “CD206 targeted drug delivery vehicles carrying novel bisphosphonate drug payloads via a degradable linker” (Navidea Biopharmaceuticals, Inc., priority 2022, dated 2025).

Legend:
human macrophages [1] = assay: Human macrophage cell culture assay: surface marker expression (MFI) by flow cytometry; assay type: cell-based
Description: GM-CSF induces the macrophages to adopt an activated phenotype that is intermediate between the extremes of M1 or M2. […] The macrophage cell cultures were incubated with the supplemented complete medium for 24 hours after which it was removed and replaced with fresh complete medium. The macrophage cultures were then incubated for an additional three days. The three-day post treatment incubation was performed to permit assessment of durable changes in macrophage phenotypes.
For each donor's macrophages, all experiments were run in triplicate.

human macrophages [2] = assay: Human macrophage cell culture assay: viability (DAPI-) by flow cytometry; assay type: cell-based; settings: 24 hours treatment, then three days in fresh medium; any tested concentration
Description: GM-CSF induces the macrophages to adopt an activated phenotype that is intermediate between the extremes of M1 or M2. […] The macrophage cell cultures were incubated with the supplemented complete medium for 24 hours after which it was removed and replaced with fresh complete medium. The macrophage cultures were then incubated for an additional three days. The three-day post treatment incubation was performed to permit assessment of durable changes in macrophage phenotypes. […] For each donor's macrophages, all experiments were run in triplicate.

Structure (SMILES) | expression level of the evaluated surface markers (overall) (human macrophages [1]; FIG. 8, free BIS-2) | cell viability (human macrophages [2]) | expression levels of the evaluated surface markers (overall) (human macrophages [1]; FIG. 5, 80 μg of MAD-BIS-1 or equal molar free BIS-1, fold change in MFI vs saline) | changes in macrophage phenotype observed with MAD-BIS-1 (human macrophages [1]; free BIS-1 at any dose)
CC(=O)c1cn(CC(C)(P(=O)(O)O)P(=O)(O)O)cn1 [BIS-2, 2-(4-acetylimidazole)ethylidene-1-methyl-1,1-bisphosphonic acid] | did not alter | – | – | –
CC(=O)c1sc(NCC(P(=O)(O)O)P(=O)(O)O)nc1C [BIS-1, 2-(4-methyl-5-acetylthiazole-2-yl-amino)ethylidene 1,1-bisphosphonic acid] | – | neither MAD-BIS-1 nor free BIS-1 decreased cell viability | very little effect | could not be replicated
